Like-named read-outs stand apart in the source and are kept apart here.
Assays:
Assay type in all cases: biochemical
[1] = molecular target: 320 wild-type protein kinases (Homo sapiens, UniProt P06493); settings: singlicate
From the text: (§1) Table S4. Profiling of two compounds at two concentrations against 320 wild-type protein kinases; singlicate measurement; Residual activities (% of control).

[2] = molecular target: T1, 320 wild-type protein kinases (Homo sapiens, UniProt P54753); settings: singlicate
T1 sequence (P54753 34-998): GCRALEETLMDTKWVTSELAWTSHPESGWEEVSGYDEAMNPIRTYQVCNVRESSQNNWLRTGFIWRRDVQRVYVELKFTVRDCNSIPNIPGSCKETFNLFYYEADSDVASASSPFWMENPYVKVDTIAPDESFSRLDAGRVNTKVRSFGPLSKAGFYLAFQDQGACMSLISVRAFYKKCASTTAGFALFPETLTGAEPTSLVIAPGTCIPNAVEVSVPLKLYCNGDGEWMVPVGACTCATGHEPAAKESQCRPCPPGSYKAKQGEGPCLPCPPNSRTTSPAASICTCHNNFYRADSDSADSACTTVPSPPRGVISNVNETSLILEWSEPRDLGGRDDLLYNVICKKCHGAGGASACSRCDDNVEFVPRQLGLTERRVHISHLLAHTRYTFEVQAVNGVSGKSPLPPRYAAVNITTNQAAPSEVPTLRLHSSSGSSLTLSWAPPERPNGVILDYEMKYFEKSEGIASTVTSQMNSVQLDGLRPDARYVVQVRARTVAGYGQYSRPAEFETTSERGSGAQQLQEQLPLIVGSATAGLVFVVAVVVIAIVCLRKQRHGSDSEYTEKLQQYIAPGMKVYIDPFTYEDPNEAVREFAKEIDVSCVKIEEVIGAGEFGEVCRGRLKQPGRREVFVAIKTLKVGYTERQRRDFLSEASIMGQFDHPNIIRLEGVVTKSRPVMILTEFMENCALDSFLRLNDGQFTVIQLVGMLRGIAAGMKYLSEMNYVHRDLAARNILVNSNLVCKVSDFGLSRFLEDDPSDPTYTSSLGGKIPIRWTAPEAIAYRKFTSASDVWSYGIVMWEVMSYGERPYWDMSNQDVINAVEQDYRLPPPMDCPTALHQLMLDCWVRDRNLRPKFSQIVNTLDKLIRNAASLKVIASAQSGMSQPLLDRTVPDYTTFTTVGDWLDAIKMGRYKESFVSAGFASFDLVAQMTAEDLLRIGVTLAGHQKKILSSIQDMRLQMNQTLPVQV
From the text: as §1

[3] = molecular target: 320 wild-type protein kinases (Homo sapiens, UniProt O96017); settings: singlicate
From the text: as §1

[4] = molecular target: 320 wild-type protein kinases (Homo sapiens, UniProt P51812); settings: kinase RPS6KA3, singlicate
From the text: as §1

[5] = molecular target: 320 wild-type protein kinases (Homo sapiens, UniProt P15056); settings: B-RAF, singlicate
From the text: as §1

[6] = molecular target: T2, 320 wild-type protein kinases (Homo sapiens, UniProt Q6XUX3); settings: kinase RIPK5, singlicate
T2 sequence (Q6XUX3 1-929): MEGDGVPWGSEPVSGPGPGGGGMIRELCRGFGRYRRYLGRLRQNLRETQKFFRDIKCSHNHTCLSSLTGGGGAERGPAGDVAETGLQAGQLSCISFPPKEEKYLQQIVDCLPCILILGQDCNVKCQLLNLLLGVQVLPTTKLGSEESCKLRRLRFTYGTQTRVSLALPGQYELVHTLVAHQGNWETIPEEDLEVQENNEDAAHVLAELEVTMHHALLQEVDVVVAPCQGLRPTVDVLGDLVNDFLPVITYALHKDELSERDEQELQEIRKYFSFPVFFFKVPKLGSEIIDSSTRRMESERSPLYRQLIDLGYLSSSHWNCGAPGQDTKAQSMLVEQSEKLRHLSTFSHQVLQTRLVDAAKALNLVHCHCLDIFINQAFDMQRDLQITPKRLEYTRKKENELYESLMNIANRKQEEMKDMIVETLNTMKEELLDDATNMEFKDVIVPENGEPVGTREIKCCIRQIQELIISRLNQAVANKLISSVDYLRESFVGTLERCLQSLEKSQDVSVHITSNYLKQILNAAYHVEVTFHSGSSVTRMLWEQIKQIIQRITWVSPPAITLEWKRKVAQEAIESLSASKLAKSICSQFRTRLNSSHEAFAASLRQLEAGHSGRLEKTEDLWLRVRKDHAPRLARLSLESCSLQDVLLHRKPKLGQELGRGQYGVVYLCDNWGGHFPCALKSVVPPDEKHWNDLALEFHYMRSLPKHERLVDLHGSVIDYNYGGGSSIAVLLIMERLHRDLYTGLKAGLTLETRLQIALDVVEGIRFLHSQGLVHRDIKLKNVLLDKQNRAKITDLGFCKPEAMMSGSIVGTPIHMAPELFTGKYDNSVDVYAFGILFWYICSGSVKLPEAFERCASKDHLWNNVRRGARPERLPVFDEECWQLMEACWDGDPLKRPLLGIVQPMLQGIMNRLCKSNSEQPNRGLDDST
From the text: as §1

[7] = molecular target: 320 wild-type protein kinases (Homo sapiens, UniProt P34947); settings: singlicate
From the text: as §1

[8] = molecular target: 320 wild-type protein kinases (Homo sapiens, UniProt P07332); settings: FES, singlicate
From the text: as §1

[9] = molecular target: 320 wild-type protein kinases (Homo sapiens, UniProt P07948); settings: LYN, singlicate
From the text: as §1

[10] = molecular target: 320 wild-type protein kinases (Homo sapiens, UniProt Q8N568); settings: singlicate
From the text: as §1

[11] = molecular target: 320 wild-type protein kinases (Homo sapiens, UniProt P41240); settings: CSK, singlicate
From the text: as §1

320 wild-type protein kinases (Homo sapiens, UniProt P34947), sequence (P34947 whole entry): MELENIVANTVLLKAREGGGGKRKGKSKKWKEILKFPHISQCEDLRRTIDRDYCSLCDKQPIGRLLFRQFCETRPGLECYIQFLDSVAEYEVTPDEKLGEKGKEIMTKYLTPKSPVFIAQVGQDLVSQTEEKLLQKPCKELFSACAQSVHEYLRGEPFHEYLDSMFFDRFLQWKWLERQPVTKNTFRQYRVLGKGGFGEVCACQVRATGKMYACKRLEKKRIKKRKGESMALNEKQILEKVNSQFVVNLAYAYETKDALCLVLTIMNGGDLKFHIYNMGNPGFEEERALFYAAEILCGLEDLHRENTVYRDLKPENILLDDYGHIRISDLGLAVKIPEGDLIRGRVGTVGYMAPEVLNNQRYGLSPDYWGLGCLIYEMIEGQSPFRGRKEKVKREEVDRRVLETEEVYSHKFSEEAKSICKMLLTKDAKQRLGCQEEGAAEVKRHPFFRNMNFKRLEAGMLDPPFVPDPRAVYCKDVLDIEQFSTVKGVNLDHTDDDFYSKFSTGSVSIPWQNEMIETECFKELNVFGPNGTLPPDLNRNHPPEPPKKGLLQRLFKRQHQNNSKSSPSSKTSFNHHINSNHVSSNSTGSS
320 wild-type protein kinases (Homo sapiens, UniProt P07332), sequence (P07332 whole entry): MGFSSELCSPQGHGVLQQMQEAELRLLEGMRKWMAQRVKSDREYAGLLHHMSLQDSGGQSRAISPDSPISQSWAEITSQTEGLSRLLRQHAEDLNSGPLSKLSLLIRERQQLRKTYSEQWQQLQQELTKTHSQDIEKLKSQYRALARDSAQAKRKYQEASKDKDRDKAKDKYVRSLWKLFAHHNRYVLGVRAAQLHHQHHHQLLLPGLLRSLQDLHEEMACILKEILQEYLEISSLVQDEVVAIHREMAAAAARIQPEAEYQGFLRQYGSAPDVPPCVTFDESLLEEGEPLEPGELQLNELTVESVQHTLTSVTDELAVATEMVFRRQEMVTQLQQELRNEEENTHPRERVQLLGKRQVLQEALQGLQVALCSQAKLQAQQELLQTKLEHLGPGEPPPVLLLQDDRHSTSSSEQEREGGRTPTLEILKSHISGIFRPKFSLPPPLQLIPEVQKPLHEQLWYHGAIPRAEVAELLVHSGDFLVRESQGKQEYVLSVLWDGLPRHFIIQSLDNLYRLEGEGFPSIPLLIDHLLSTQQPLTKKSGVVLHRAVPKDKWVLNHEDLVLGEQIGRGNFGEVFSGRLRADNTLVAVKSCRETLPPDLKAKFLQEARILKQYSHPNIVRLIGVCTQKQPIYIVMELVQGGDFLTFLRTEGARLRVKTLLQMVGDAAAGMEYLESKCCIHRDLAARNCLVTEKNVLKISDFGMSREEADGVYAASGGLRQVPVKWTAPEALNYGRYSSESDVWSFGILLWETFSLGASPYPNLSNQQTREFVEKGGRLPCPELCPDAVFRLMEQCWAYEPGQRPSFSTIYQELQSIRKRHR
320 wild-type protein kinases (Homo sapiens, UniProt P15056), sequence (P15056 whole entry): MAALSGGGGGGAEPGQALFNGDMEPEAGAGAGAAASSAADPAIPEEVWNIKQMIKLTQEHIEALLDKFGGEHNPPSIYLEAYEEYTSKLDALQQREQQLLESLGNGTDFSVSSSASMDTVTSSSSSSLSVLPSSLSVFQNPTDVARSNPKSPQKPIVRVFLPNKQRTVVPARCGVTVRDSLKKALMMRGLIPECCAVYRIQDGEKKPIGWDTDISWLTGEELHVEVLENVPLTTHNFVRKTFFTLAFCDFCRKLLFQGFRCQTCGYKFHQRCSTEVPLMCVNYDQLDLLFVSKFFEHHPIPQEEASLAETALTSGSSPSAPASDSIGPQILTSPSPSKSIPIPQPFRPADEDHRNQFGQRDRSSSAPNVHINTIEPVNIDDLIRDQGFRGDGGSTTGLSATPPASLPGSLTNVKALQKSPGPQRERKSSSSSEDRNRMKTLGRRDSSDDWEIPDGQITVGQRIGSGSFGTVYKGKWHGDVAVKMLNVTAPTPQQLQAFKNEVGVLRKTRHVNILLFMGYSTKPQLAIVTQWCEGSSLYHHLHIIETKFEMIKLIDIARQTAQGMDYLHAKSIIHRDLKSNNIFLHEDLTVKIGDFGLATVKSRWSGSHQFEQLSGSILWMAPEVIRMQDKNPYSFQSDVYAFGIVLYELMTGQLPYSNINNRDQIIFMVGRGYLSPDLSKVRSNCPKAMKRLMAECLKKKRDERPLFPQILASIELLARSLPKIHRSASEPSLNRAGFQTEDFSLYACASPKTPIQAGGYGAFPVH
320 wild-type protein kinases (Homo sapiens, UniProt P41240), sequence (P41240 whole entry): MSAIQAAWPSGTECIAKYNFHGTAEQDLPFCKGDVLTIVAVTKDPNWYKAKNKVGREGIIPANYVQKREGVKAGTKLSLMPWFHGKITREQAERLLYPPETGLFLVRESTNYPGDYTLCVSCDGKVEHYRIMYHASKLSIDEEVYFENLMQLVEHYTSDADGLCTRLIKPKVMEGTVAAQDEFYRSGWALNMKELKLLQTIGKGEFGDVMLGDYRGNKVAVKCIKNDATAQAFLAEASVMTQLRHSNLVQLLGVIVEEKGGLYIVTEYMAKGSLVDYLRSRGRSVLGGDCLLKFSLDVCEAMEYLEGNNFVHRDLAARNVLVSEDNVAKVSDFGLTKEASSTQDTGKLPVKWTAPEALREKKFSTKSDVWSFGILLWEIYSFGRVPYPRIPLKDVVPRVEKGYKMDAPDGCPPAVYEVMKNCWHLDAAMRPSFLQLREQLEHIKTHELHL
320 wild-type protein kinases (Homo sapiens, UniProt P07948), sequence (P07948 whole entry): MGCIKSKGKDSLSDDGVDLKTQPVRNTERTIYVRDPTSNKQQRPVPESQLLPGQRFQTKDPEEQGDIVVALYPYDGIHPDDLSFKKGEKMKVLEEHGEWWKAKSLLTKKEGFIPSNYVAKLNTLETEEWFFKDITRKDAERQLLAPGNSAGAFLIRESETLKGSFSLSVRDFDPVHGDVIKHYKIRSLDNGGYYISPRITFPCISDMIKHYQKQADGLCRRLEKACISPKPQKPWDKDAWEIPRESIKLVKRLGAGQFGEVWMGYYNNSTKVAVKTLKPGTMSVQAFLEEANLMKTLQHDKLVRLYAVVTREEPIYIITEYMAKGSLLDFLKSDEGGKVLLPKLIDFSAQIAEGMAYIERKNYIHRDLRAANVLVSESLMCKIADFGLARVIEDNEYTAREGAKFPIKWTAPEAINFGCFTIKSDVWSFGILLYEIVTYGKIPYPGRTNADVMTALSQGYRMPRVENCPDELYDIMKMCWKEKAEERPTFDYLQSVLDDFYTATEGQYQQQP
320 wild-type protein kinases (Homo sapiens, UniProt P06493), sequence (P06493 whole entry): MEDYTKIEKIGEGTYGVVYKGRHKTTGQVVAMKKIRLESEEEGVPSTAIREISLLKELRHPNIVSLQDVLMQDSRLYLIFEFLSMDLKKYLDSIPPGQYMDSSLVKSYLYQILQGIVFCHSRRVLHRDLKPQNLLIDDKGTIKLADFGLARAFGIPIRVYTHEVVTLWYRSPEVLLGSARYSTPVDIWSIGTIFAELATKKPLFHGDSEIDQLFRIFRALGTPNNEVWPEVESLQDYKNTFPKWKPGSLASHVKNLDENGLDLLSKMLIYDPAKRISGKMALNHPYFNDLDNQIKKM
320 wild-type protein kinases (Homo sapiens, UniProt O96017), sequence (O96017 whole entry): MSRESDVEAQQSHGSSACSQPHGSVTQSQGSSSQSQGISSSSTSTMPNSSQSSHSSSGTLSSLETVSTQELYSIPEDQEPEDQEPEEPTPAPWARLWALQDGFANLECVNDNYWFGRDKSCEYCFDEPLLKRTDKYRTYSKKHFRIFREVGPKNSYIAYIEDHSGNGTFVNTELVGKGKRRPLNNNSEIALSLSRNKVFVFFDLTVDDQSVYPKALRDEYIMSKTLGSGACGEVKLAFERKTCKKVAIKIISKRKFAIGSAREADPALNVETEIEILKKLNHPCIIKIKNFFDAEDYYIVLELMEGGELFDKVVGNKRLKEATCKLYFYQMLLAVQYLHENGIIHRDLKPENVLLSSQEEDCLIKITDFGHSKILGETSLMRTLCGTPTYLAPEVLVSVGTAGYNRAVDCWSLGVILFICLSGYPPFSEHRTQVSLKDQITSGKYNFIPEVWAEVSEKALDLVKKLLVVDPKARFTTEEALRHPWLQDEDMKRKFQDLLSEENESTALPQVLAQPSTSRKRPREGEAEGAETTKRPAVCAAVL
320 wild-type protein kinases (Homo sapiens, UniProt Q8N568), sequence (Q8N568 whole entry): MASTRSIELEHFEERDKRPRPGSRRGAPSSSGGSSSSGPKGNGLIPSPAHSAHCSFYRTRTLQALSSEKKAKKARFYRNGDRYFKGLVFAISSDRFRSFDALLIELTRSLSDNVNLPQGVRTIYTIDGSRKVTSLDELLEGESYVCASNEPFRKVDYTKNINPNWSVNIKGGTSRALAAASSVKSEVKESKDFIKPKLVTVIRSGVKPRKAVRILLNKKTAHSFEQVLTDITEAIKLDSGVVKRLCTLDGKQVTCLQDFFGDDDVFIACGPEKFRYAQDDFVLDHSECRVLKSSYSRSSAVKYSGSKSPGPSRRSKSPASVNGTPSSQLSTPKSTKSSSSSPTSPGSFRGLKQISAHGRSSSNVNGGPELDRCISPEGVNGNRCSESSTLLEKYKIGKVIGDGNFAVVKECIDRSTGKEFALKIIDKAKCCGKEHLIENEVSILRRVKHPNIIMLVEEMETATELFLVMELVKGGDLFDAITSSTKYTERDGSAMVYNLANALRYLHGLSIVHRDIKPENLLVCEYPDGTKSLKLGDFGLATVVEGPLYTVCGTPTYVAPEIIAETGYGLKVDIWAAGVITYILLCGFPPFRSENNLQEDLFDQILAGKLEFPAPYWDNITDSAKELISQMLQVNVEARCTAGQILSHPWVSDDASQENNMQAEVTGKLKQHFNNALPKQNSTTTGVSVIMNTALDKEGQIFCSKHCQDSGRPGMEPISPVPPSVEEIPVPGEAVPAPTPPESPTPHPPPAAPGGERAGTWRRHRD

C#Cc1cc(Nc2ncnc3cc(I)ccc23)ccc1Cl [Compound 41]
Residual activity ([1]; CDK1/CycA2, 1.0E-06 M): 77 % of control
Residual activity ([1]; CDK1/CycA2, 1.0E-07 M): 91 % of control
Residual activity ([1]; CDK1/CycB1, 1.0E-06 M): 79 % of control
Residual activity ([1]; CDK1/CycB1, 1.0E-07 M): 84 % of control
Residual activity ([1]; CDK1/CycE1, 1.0E-06 M): 101 % of control
Residual activity ([1]; CDK1/CycE1, 1.0E-07 M): 116 % of control
Residual activity ([2]; EPHB3, 1.0E-06 M): 100 % of control
Residual activity ([2]; EPHB3, 1.0E-07 M): 110 % of control
Residual activity ([3]; CHK2, 1.0E-06 M): 83 % of control
Residual activity ([3]; CHK2, 1.0E-07 M): 105 % of control
Residual activity, RPS6KA3 ([4]; assay conc. 1.0E-06 M): 96 % of control
Residual activity, RPS6KA3 ([4]; assay conc. 1.0E-07 M): 99 % of control
Residual activity ([5]; 1.0E-06 M): 115 % of control
Residual activity ([5]; 1.0E-07 M): 145 % of control
Residual activity, RIPK5 ([6]; assay conc. 1.0E-06 M): 85 % of control
Residual activity, RIPK5 ([6]; assay conc. 1.0E-07 M): 96 % of control
Residual activity ([7]; GRK5, 1.0E-06 M): 111 % of control
Residual activity ([7]; GRK5, 1.0E-07 M): 108 % of control
Residual activity ([8]; 1.0E-06 M): 93 % of control
Residual activity ([8]; 1.0E-07 M): 118 % of control
Residual activity ([9]; 1.0E-06 M): 89 % of control
Residual activity ([9]; 1.0E-07 M): 103 % of control
Residual activity ([10]; DCAMKL2, 1.0E-06 M): 90 % of control
Residual activity ([10]; DCAMKL2, 1.0E-07 M): 87 % of control
Residual activity ([11]; 1.0E-06 M): 92 % of control
Residual activity ([11]; 1.0E-07 M): 110 % of control

C#Cc1cc(Nc2ncnc3cc(OC)c(OC)cc23)ccc1Cl [Compound 45]
Residual activity ([1]; CDK1/CycA2, 1.0E-06 M): 83 % of control
Residual activity ([1]; CDK1/CycA2, 1.0E-07 M): 83 % of control
Residual activity ([1]; CDK1/CycB1, 1.0E-06 M): 78 % of control
Residual activity ([1]; CDK1/CycB1, 1.0E-07 M): 89 % of control
Residual activity ([1]; CDK1/CycE1, 1.0E-06 M): 91 % of control
Residual activity ([1]; CDK1/CycE1, 1.0E-07 M): 97 % of control
Residual activity ([2]; EPHB3, 1.0E-06 M): 113 % of control
Residual activity ([2]; EPHB3, 1.0E-07 M): 99 % of control
Residual activity ([3]; CHK2, 1.0E-06 M): 78 % of control
Residual activity ([3]; CHK2, 1.0E-07 M): 94 % of control
Residual activity, RPS6KA3 ([4]; assay conc. 1.0E-06 M): 115 % of control
Residual activity, RPS6KA3 ([4]; assay conc. 1.0E-07 M): 119 % of control
Residual activity ([5]; 1.0E-06 M): 108 % of control
Residual activity ([5]; 1.0E-07 M): 112 % of control
Residual activity, RIPK5 ([6]; assay conc. 1.0E-06 M): 71 % of control
Residual activity, RIPK5 ([6]; assay conc. 1.0E-07 M): 84 % of control
Residual activity ([7]; GRK5, 1.0E-06 M): 111 % of control
Residual activity ([7]; GRK5, 1.0E-07 M): 107 % of control
Residual activity ([8]; 1.0E-06 M): 97 % of control
Residual activity ([8]; 1.0E-07 M): 107 % of control
Residual activity ([9]; 1.0E-06 M): 62 % of control
Residual activity ([9]; 1.0E-07 M): 94 % of control
Residual activity ([10]; DCAMKL2, 1.0E-06 M): 103 % of control
Residual activity ([10]; DCAMKL2, 1.0E-07 M): 97 % of control
Residual activity ([11]; 1.0E-06 M): 92 % of control
Residual activity ([11]; 1.0E-07 M): 106 % of control

Source: article PMC9329436, “Optimization of the 4-anilinoquin(az)oline scaffold as epidermal growth factor receptor (EGFR) inhibitors for chordoma utilizing a toxicology profiling assay platform” (Scientific Reports, 2022)
